Laboratory results as given in ChEMBL document CHEMBL1132883, “Cyclopentadienyltricarbonylrheniumbenzazepines: synthesis and binding affinity” (Bioorg Med Chem Lett, 2000).

Tests used:
Assay type in all cases: tissue-based
[1] = target: 5-hydroxytryptamine receptor 2A (Rattus norvegicus, UniProt P14842); test: Compound was evaluated for affinity towards cerebral 5-hydroxytryptamine 2A receptor in homogenate of caudate putamen tissue from rat brain
[2] = target: T1, 5-hydroxytryptamine receptor 2C (Rattus norvegicus, UniProt P08909); test: Compound was evaluated for affinity towards cerebral 5-hydroxytryptamine 2C receptor in homogenate of caudate putamen tissue from rat brain
T1 sequence (P08909 whole entry): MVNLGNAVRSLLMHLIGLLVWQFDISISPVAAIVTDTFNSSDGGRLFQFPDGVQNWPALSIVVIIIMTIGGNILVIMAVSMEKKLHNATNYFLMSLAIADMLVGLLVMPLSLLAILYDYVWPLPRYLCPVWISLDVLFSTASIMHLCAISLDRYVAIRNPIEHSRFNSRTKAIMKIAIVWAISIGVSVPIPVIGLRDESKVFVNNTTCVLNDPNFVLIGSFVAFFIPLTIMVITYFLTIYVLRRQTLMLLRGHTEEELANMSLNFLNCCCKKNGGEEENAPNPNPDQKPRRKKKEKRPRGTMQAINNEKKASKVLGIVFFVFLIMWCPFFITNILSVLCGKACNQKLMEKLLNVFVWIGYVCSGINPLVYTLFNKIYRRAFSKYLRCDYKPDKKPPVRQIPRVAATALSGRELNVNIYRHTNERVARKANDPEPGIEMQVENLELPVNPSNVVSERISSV

D(1A) dopamine receptor = D(1A) dopamine receptor (Rattus norvegicus, UniProt P18901); test: Compound was evaluated for affinity towards dopamine D1-like receptor in homogenate of caudate putamen tissue from rat brain
D(1A) dopamine receptor, sequence (P18901 whole entry): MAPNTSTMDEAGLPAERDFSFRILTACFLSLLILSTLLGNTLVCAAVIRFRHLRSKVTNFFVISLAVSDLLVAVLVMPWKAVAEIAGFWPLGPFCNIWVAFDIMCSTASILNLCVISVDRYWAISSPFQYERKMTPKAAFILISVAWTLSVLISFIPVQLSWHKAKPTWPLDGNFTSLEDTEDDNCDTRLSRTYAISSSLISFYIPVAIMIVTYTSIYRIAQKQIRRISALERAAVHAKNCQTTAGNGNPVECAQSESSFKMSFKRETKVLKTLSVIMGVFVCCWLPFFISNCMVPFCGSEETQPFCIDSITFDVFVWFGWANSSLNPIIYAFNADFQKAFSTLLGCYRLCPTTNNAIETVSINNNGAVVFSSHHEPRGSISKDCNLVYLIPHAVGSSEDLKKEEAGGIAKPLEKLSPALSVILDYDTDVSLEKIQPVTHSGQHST

5-hydroxytryptamine receptor 2A, sequence (P14842 whole entry): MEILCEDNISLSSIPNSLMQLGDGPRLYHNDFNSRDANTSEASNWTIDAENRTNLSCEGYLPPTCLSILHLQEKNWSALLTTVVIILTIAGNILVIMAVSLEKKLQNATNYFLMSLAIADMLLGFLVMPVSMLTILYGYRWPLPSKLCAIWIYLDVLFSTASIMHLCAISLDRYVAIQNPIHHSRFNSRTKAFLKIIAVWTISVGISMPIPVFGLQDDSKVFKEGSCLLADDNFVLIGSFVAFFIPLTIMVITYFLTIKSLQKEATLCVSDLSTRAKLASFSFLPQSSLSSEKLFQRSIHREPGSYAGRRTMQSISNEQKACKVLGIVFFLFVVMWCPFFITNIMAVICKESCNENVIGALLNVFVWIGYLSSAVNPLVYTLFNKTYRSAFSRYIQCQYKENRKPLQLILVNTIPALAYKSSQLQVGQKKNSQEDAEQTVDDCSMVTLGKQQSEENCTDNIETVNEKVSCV

CN1CCc2cc(Cl)c(O)cc2C(c2ccccc2Br)C1 (stereo not drawn)
Ki [1]: 22.1 nM | Ki [2]: 11.8 nM | Ki (D(1A) dopamine receptor): 0.7 nM

CN1CCc2cc(Cl)c(O)cc2C(c2cccc(Br)c2)C1 (stereo not drawn)
Ki [1]: 8.5 nM | Ki [2]: 2.08 nM | Ki (D(1A) dopamine receptor): 0.26 nM

CN1CCc2cc(Cl)c(O)cc2[C@@H](c2ccccc2)C1 [SCH-23390]
Ki [1]: 10.8 nM | Ki [2]: 12.5 nM
